Two compounds from patent publication US10874686B2, “Anthranilyl-adenosinemonosulfamate analogs and uses thereof” (Memorial Sloan-Kettering Cancer Center, priority 2015, dated 2020) can be followed below.

Data set [1] deals with HHQ and PQS quinolone production in P. aeruginosa strain PA14. Kind of data set: Inhibition of HHQ and PQS quinolone production in P. aeruginosa strain PA14 (LC-MS/MS). In kind it is cell-based, Pseudomonas aeruginosa. Particulars: for inhibition at 1500 µM / inhibition at 1000 µM: Pseudomonas aeruginosa. On the procedure:
The production of PQS and HHQ by strain PA14 was performed in triplicate in 14-mL round bottom falcon tubes containing 3-mL cultures in LB medium. Tubes were incubated at 37° C. in an orbital shaker at 225 rpm. Cultures were inoculated with 15-hour culture in LB in order to obtain a starting OD600=0.05, with or without inhibitors added. For PQS and HHQ analysis, a 20 μl aliquot was taken at time points as indicated. Each sample was diluted with 180 μL of methanol containing the internal standard (100 μM of d^4-PQS or d^4-HHQ) and 2% acetic acid. The solution was then vertexed and centrifuged at 13,000 g for 5 minutes, and the supernatant was transferred to a 96-well plates for LC-MS/MS analysis. Bacterial growth was measured by recording OD600 at 20 h to provide the data in FIG. 7A.
Liquid chromatography tandem mass spectrometry (LC-MS/MS) was carried out on an Agilent Technologies 6410 triple quad LC-MS/MS system with autosampler in electrospray ionization (ESI) mode, with an Agilent Zorbax Eclipse XDB-C18 reverse phase column (50×4.6 mm, 5 μm) using a flow rate of 0.5 mL/minute and an isocratic mobile phase of 60% CH3CN in 0.1% aqueous formic acid over 5 minutes. Positive electrospray in MRM mode was employed to quantify PQS and HHQ, using the ion transitions HHQ 244 to 159, d^4-HHQ 248 to 163, PQS 260 to 175, and d^4-PQS 264 to 179; shown in Table E3.
PqsA inhibitors 1-5 were evaluated for their ability to inhibit HHQ and PQS quinolone production in P. aeruginosa strain PA14 (FIG. 6). HHQ and PQS concentrations were determined by LC-MS/MS quantitation relative to deuterated internal standards. 6-Fluoroanthranilate (6FABA), a substrate analogue reported previously to inhibit quinolone production at millimolar concentrations, was used as a positive control. Compounds were initially tested at 1.5 mM concentration, and HHQ and PQS were quantified at 8 and 20 hours, respectively. These time points were selected based on an initial time course study of quinolone production in the absence of inhibitors, with HHQ or PQS production peaking at these respective time points. […] This could be due to differences in cell penetration, stability, and/or target specificity. Finally, because inhibitors of the quinolone quorum sensing pathway should not impact bacterial growth, we confirmed that none of the six inhibitors above inhibited growth over 20 h (FIG. 7A). Encouraged by the ability of anthranilyl-AMS (1) and anthranilyl-AMSN (2) to inhibit HHQ and PQS quinolone production, the activity of these two inhibitors and 6FABA were investigated in greater detail. In untreated controls, HHQ and PQS production peaked at 8 and 20 hours, respectively. Previously reported time course studies have similarly shown that HHQ levels peak at 6-8 hours while PQS levels continue to rise. See, e.g., Deziel et al. (2004) Proc. Natl. Acad. Sci. U.S.A 101, 1339; Kesarwani et al. (2011) PLoS Pathog. 7, e1002192. All three inhibitors were able to decrease quinolone production in a dose- and time-dependent manner (FIG. 2A). […] Such a perturbation might still be sufficient to impact P. aeruginosa virulence in vivo. […] See, e.g., Lesic et al. (2007) PLoS Pathog. 3, e126.

In data set [2] the test system is pyocyanin production by P. aeruginosa strain PA14. Kind of data set: Pyocyanin production by P. aeruginosa strain PA14. The class given is cell-based, Pseudomonas aeruginosa. Particulars: 1 mM, 24 h. How it is done: Production of pyocyanin by P. aeruginosa strain PA14 was performed in triplicate in roundbottom glass tubes containing 5-mL cultures in LB medium. Tubes tilted at ˜60° angle were incubated at 37° C. in an orbital shaker at 200 rpm. Cultures were inoculated with 15-h preculture in LB in order to obtain a starting OD600 nm=0.05, with or without inhibitors added. At 24 h, 1 mL of each culture was thoroughly vortexed and centrifuged (12,000 g, 5 min). Next, 0.8 mL of the supernatant was removed and the OD690 nm was measured. The ratio of the absorbance compound-treated or MvfR^− cultures and untreated controls was calculated to provide the data in FIG. 7B.
The ability of these PqsA inhibitors to block production of the virulence factor pyocyanin was investigated. […] See, e.g., Starkey et al. (2014) PLoS Pathog. 10, e1004321; Storz et al. (2012) J. Am. Chem. Soc. 134, 16143; Thomann et al. (2016) ACS Chem. Biol. 11, 1279. Haloanthranilate substrate analogues have been reported to inhibit both quinolone and pyocyanin production but may impact multiple targets in this complex signaling network. This is indicative of the complex relationship between HHQ and PQS quinolone biosynthesis, induction of the MvfR regulon, and production of pyocyanin.

A further data set has as its system MRC5 cells. In words: Cytotoxicity cell viability assay (CellTiter Glo), MRC5. In kind it is cell-based. The settings on record: for IC50: Homo sapiens, MRC5, 48 hrs, luminescence; for toxicity in words, CellTiter Glo, MRC5: MRC5, luminescence readout, up to 1000 μM. From the text:
(§1) Promega Cell Titer-Glo utilizes the ATP dependent conversion of Luciferin to Oxyluciferin by a recombinant Luciferase in order to quantify the number of metabolically active cells in a sample. Quantification is possible because the number of RLU's detected is linearly proportional to the amount of ATP produced by metabolically active cells in culture at the time of lysis. Therefore, the relative cytotoxicity of each compound can be tested by quantifying the amount of ATP present in each microtiter well as compared to control groups. HepG2 and MRC5 were plated at a density of 1500 cells/25 al in well in the assay plate and allowed to settle overnight. 0.1 μL of compounds was then transferred from the source plate, into the cell assay plates. The cells were left to incubate with the compounds for 48 hrs, after which, 25 μL of Promega Cell Titer-Glo was added to each well, and allowed to incubate at room temperature with shaking for 20 minutes. RLU's for each well were then recorded on a BioTek Synergy NEO. DMSO was used as negative control
A general note: ATP-based viability assays read luminescence as a measure of living cells.

A further data set concerns HepG2 cells. In words: Cytotoxicity cell viability assay (CellTiter Glo), HepG2. The class given is cell-based. Particulars: for toxicity in words, CellTiter Glo, HepG2: HepG2, luminescence readout, up to 1000 μM; for IC50: Homo sapiens, HepG2, 48 hrs, luminescence.
Excerpt: as §1

The mark [3] stands for this setting: PA14, 8 h, read-out: inhibition of HHQ production.
Where [4] appears, read: PA14, 20 h, read-out: inhibition of PQS production.
Setting [5] is: PA14, read-out: inhibition of HHQ production.
Setting [6] is: PA14, read-out: inhibition of PQS production.

Molecules are shown by their SMILES. Read-outs that look alike come from different tables or passages of the source.

What is called inhibition is the share of the control response that was lost under treatment. The IC50 is the midpoint of a concentration-inhibition curve. `Nc1ccccc1C(=O)NS(=O)(=O)OC[C@H]1O[C@@H](n2cnc3c(N)ncnc32)[C@H](O)[C@@H]1O` [anthranilyl-AMS, Anthranilyl-AMS]: the “dose- and time-dependent decrease of quinolone production, in words” value in data set [1] (FIG. 2A) is reported as “same trend of inhibition, albeit again with lower potency”. In addition, the inhibition at 1500 µM in data set [1] (setting [3]) worked out at 67%; in data set [1] (setting [4]), 77%. Moreover, the inhibition at 1000 µM in data set [1] (setting [5]) was determined as 47%; in data set [1] (setting [6]), 40%. Further, the “inhibition of pyocyanin production” value in data set [2] is “neither inhibited pyocyanin production”. Moreover, the figures for the IC50 in the data set on MRC5 cells and in the data set on HepG2 cells were 10.6 µM and 3.1 µM, respectively. The “toxicity in words, CellTiter Glo, MRC5” value in the data set with MRC5 cells was “significant toxicity in the tested range”. In addition, in the data set with HepG2 cells, the “toxicity in words, CellTiter Glo, HepG2” value was “significant toxicity in the tested range”.
With `Nc1ccccc1C(=O)NS(=O)(=O)NC[C@H]1O[C@@H](n2cnc3c(N)ncnc32)[C@H](O)[C@@H]1O` [anthranilyl-AMSN, Anthranilyl-AMSN], the inhibition at 1500 µM in data set [1] (setting [3]) turned out to be 90%; in data set [1] (setting [4]) it was 92%. For the same compound, the inhibition at 1000 µM in data set [1] (setting [5]) and in data set [1] (setting [6]) was 84% each time. Further, in data set [2], the “inhibition of pyocyanin production” value was “neither inhibited pyocyanin production”. Besides, the IC50 with MRC5 cells was determined as 33.7 µM; with HepG2 cells, 19.2 µM. In addition, the “toxicity in words, CellTiter Glo, MRC5” value in the data set with MRC5 cells was “significant toxicity in the tested range”. Moreover, the “toxicity in words, CellTiter Glo, HepG2” value in the data set with HepG2 cells was “significant toxicity in the tested range”.
